Legend:
[1] = system: subjects diagnosed with major depressive disorder (MDD); assay: Phase 1 clinical study: safety; format: in vivo, human
From the text: Safety data included adverse events (AEs), concomitant medications, PE, vital signs (VS), ECGs, clinical laboratory results, other safety measures based on questionnaires (Clinician-Administered Dissociative States Scale [CADSS], Observer's Assessment of Alertness/Sedation Scale [OAA/S], Brief Psychiatric Rating Scale [BPRS]), and the emergence of suicidality based on the suicidal ideation and suicidal behavior ratings of the Columbia-Suicide Severity Rating Scale (C-SSRS). Safety summaries and analyses were performed on the Safety Population and were presented by treatment. Observed data was summarized using counts and percentages for discrete variables and means, SD, median, inter-quartile range (25th-75th percentile), minimum, and maximum for continuous measures.

[2] = Phase 1 clinical study: plasma pharmacokinetics after ketamine transdermal patch; conditions: for AUC / AUC(0-inf) / Cmax / half-life / Tmax: human, plasma, other: transdermal patch; for AUC(0-inf): AUCinf
Procedure: Enrollment was planned to achieve participation of up to 14 adult subjects with MDD in the 3 stages of the protocol. Subjects were to be screened within 4 weeks of enrollment. Eligible subjects who provided written consent were to be enrolled into Stage 1 of the study. In Stage 1 of the study, subjects were to receive the low-dose transdermal patch. The amount of residual drug was to be measured and PK analysis conducted for each subject to inform the subsequent dosing. In Stage 2, after a 2 to 4 week washout period, a placebo patch was to be administered. A “deception” protocol was used in order to ensure the subjects remained blinded to the treatment. Placebo administration was followed by a 1 week washout period, after which subjects were to receive the high-dose transdermal patch in Stage 3. The overall study duration from screening until the end of Stage 3 was approximately 60 days, including both inpatient and outpatient portions of the study. The general study design is illustrated in FIG. 3.
The patch was predicted to deliver systemically approximately 20 mg.
For Stage 1, blood samples were collected pre-patch application, and at 2, 6, 12, 24, 28, 32, 48, 96, and 168 hours post-patch application.
Blood samples were collected in tubes containing sodium heparin and stored on ice or room temperature until centrifuged under refrigeration or room temperature for at least 10 minutes at 3,000 revolutions per minute. After centrifugation, plasma was removed, divided into 2 aliquots of approximately 0.6 mL each, frozen, and stored at or below −20° C. Blood was processed to plasma and frozen within 1 hour of collection. Processed frozen plasma samples were transferred on dry ice to the analytical laboratory and were stored at or below −20° C. until bioanalysis was performed.
A non-compartmental analysis (NCA) was used to calculate PK parameters using Phoenix® WinNonlin® 6.4 or later (Certara, USA).

patients = conditions: cited from earlier work
[3] = cited from earlier work
[4] = Stage 1: Ketamine Low-Dose (N = 18)
[5] = Stage 3: Ketamine High-Dose (N = 12)

CNC1(c2ccccc2Cl)CCCCC1=O (racemic) [Ketamine, ketamine]
overall safety and tolerability ([1]; 20 mg and 40 mg doses): generally safe and well tolerated
At least 1 TEAE, # of Events [1, 4]: 3
At least 1 TEAE, n (%) [1, 4]: 3 (16.7) n (%)
Cardiac disorders, # of Events [1, 4]: 0
Cardiac disorders, n (%) [1, 4]: 0 n (%)
Contusion, # of Events [1, 4]: 1
Contusion, n (%) [1, 4]: 1(5.6) n (%)
Depression, # of Events [1, 4]: 0
Depression, n (%) [1, 4]: 0 n (%)
Dermatitis, # of Events [1, 4]: 0
Dermatitis, n (%) [1, 4]: 0 n (%)
Diarrhoea, # of Events [1, 4]: 1
Diarrhoea, n (%) [1, 4]: 1(5.6) n (%)
Erythema, # of Events [1, 4]: 0
Erythema, n (%) [1, 4]: 0 n (%)
Gastrointestinal disorders, # of Events [1, 4]: 1
Gastrointestinal disorders, n (%) [1, 4]: 1 (5.6) n (%)
Headache, # of Events [1, 4]: 0
Headache, n (%) [1, 4]: 0 n (%)
Infections and infestations, # of Events [1, 4]: 0
Infections and infestations, n (%) [1, 4]: 0 n (%)
Injury, poisoning, and procedural complications, # of Events [1, 4]: 1
Injury, poisoning, and procedural complications, n (%) [1, 4]: 1 (5.6) n (%)
Nervous system disorders, # of Events [1, 4]: 1
Nervous system disorders, n (%) [1, 4]: 1 (5.6) n (%)
Psychiatric disorders, # of Events [1, 4]: 0
Psychiatric disorders, n (%) [1, 4]: 0 n (%)
Skin and subcutaneous tissue disorders, # of Events [1, 4]: 0
Skin and subcutaneous tissue disorders, n (%) [1, 4]: 0 n (%)
Somnolence, # of Events [1, 4]: 1
Somnolence, n (%) [1, 4]: 1 (5.6) n (%)
Swelling face, # of Events [1, 4]: 0
Swelling face, n (%) [1, 4]: 0 n (%)
Tachycardia, # of Events [1, 4]: 0
Tachycardia, n (%) [1, 4]: 0 n (%)
Urinary tract infection, # of Events [1, 4]: 0
Urinary tract infection, n (%) [1, 4]: 0 n (%)
At least 1 TEAE, # of Events [1, 5]: 5
At least 1 TEAE, n (%) [1, 5]: 4 (33.3) n (%)
Cardiac disorders, # of Events [1, 5]: 0
Cardiac disorders, n (%) [1, 5]: 0 n (%)
Contusion, # of Events [1, 5]: 1
Contusion, n (%) [1, 5]: 1 (8.3) n (%)
Depression, # of Events [1, 5]: 1
Depression, n (%) [1, 5]: 1 (8.3) n (%)
Dermatitis, # of Events [1, 5]: 0
Dermatitis, n (%) [1, 5]: 0 n (%)
Diarrhoea, # of Events [1, 5]: 0
Diarrhoea, n (%) [1, 5]: 0 n (%)
Erythema, # of Events [1, 5]: 1
Erythema, n (%) [1, 5]: 1 (8.3) n (%)
Gastrointestinal disorders, # of Events [1, 5]: 0
Gastrointestinal disorders, n (%) [1, 5]: 0 n (%)
Headache, # of Events [1, 5]: 1
Headache, n (%) [1, 5]: 1 (8.3) n (%)
Infections and infestations, # of Events [1, 5]: 0
Infections and infestations, n (%) [1, 5]: 0 n (%)
Injury, poisoning, and procedural complications, # of Events [1, 5]: 1
Injury, poisoning, and procedural complications, n (%) [1, 5]: 1 (8.3) n (%)
Nervous system disorders, # of Events [1, 5]: 1
Nervous system disorders, n (%) [1, 5]: 1 (8.3) n (%)
Psychiatric disorders, # of Events [1, 5]: 1
Psychiatric disorders, n (%) [1, 5]: 1 (8.3) n (%)
Skin and subcutaneous tissue disorders, # of Events [1, 5]: 2
Skin and subcutaneous tissue disorders, n (%) [1, 5]: 1 (8.3) n (%)
Somnolence, # of Events [1, 5]: 0
Somnolence, n (%) [1, 5]: 0 n (%)
Swelling face, # of Events [1, 5]: 1
Swelling face, n (%) [1, 5]: 1 (8.3) n (%)
Tachycardia, # of Events [1, 5]: 0
Tachycardia, n (%) [1, 5]: 0 n (%)
Urinary tract infection, # of Events [1, 5]: 0
Urinary tract infection, n (%) [1, 5]: 0 n (%)
OAA/S change from baseline composite score between treatments ([1]; any timepoint): No significant differences
TEAEs considered possibly related to the study drug ([1]; headache and diarrhoea): 2
PR interval or QTcB interval ([1]; human, in vivo): No trends in mean change from baseline
SBP, DBP, oxygen saturation, temperature ([1]; human, in vivo): No notable mean changes from baseline
adverse reactions at the patch application site ([1]; human, in vivo): no adverse reactions noted at the patch application site
deaths or SAEs ([1]; human, in vivo): no deaths or SAEs
laboratory parameters ([1]; human, in vivo): no clinically significant abnormal trends
severe TEAEs ([1]; human, in vivo): no severe TEAEs
respiratory rate and HR ([1]; ketamine high dose): a decrease in mean respiratory rate and an increase in HR compared to baseline
BPRS, BPRS-Positive subscale, CADSS total score post-patch application ([1]; low-dose or high-dose): no increase in the total score of the BPRS, the BPRS-Positive subscale, or the CADSS
TEAEs considered probably related to the study drug ([1]; somnolence): 1
plasma concentration ([2]; 96 hours post dose): minimal values
plasma concentration ([2]; 168 hours post dose): below quantification limit
Extrap ([2]; Stage 1, Mean): 6%
Extrap ([2]; Stage 1, Median): 6%
Extrap ([2]; Stage 3, Mean): 4%
Extrap ([2]; Stage 3, Median): 3%
AUC ([2]; 20 mg, AUCall, Stage 1 (60 cm^2 patch, 24 h, low-dose), Mean): 0.284 µg·h/mL
AUC ([2]; 20 mg, AUCall, Stage 1 (60 cm^2 patch, 24 h, low-dose), Median): 0.28 µg·h/mL
AUC(0-inf) ([2]; 20 mg, Stage 1, Mean): 0.299 µg·h/mL
AUC(0-inf) ([2]; 20 mg, Stage 1, Median): 0.274 µg·h/mL
Cmax ([2]; 20 mg, Stage 1, Mean): ~0.0103 µg/mL
Cmax ([2]; 20 mg, Stage 1, Median): 0.00992 µg/mL
half-life ([2]; 20 mg, T1/2, Stage 1, Mean): 13.2 h
half-life ([2]; 20 mg, T1/2, Stage 1, Median): 13.7 h
Tmax ([2]; 20 mg, Stage 1, Mean): 27.1 h
Tmax ([2]; 20 mg, Stage 1, Median): 28 h
AUC ([2]; 20 mg, average AUC of ketamine per cm^2 patch over 24 hours, Stage 1): 0.00362 µg·h/mL
AUC ([2]; 40 mg, AUCall, Stage 3 (20 and 60 cm^2 patches, high-dose), Mean): 0.393 µg·h/mL
AUC ([2]; 40 mg, AUCall, Stage 3 (20 and 60 cm^2 patches, high-dose), Median): 0.339 µg·h/mL
AUC(0-inf) ([2]; 40 mg, Stage 3, Mean): 0.423 µg·h/mL
AUC(0-inf) ([2]; 40 mg, Stage 3, Median): 0.362 µg·h/mL
Cmax ([2]; 40 mg, Stage 3, Mean): ~0.0144 µg/mL
Cmax ([2]; 40 mg, Stage 3, Median): 0.00967 µg/mL
half-life ([2]; 40 mg, T1/2, Stage 3, Mean): 13.8 h
half-life ([2]; 40 mg, T1/2, Stage 3, Median): 14.9 h
Tmax ([2]; 40 mg, Stage 3, Mean): 27 h
Tmax ([2]; 40 mg, Stage 3, Median): 28 h
AUC ([2]; 40 mg, average AUC of ketamine per cm^2 patch over 24 hours, Stage 3): 0.00417 µg·h/mL
time after which side effects typically resolved (patients; 0.5 mg/kg 40 minutes IV infusion): about 2 hours
duration of antidepressant effect after single dose (patients; IV infusion or intranasal spray): about 3 days
reduction of opioid consumption (patients; low-dose IV, perioperative pain, meta-analysis): 40%
absolute oral bioavailability ([3]; humans): 10-20%
systemic (primarily hepatic) clearance ([3]; in vivo): about 19 ml/min·kg

— US11559497B2 (Guangzhou Dazhou Biomedicine Ltd., priority 2020, dated 2023)
